Measured values from the supplement of paper PMC9512659.

How the values were obtained:
[1] = system: Mycobacterium tuberculosis Erdman (pMV306hsp+LuxG13); assay: AUC25, normalised area under the dose-response curve up to IC25 (normalised AUC (unitless)); higher = more potent
Procedure: (§1)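 DiaMOND pairwise dose responses of an equipotent two-drug mixture (1.5-fold, 10-dose series) against autoluminescent M. tuberculosis Erdman in 384-well plates. Growth inhibition was read by OD600 (luminescence for dormancy) in seven media at a constant and a terminal time point; metrics are means of at least biological duplicates. Einf and AUC25 higher = more potent; GRinf lower = more potent; log2FIC negative = synergy.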

[2] = system: Mycobacterium tuberculosis Erdman (pMV306hsp+LuxG13); assay: log2 fractional inhibitory concentration at 50% inhibition (log2 FIC); higher = more antagonistic
Procedure: as §1

[3] = system: Mycobacterium tuberculosis Erdman (pMV306hsp+LuxG13); assay: log2 fractional inhibitory concentration at 90% inhibition (log2 FIC); higher = more antagonistic
Procedure: as §1

[4] = system: Mycobacterium tuberculosis Erdman (pMV306hsp+LuxG13); assay: Einf, effect of the drug pair at infinite dose (maximum growth inhibition) (fraction inhibition (0-1)); higher = more potent; extreme values may be limits of the assay
Procedure: as §1

[5] = system: Mycobacterium tuberculosis Erdman (pMV306hsp+LuxG13); assay: GRinf, normalised growth-rate inhibition at infinite dose (GR value (unitless, negative = killing)); higher = less potent
Procedure: as §1

[6] = growth medium: acidic pH 5.7, glycerol, time point: constant time point
[7] = growth medium: acidic pH 5.7, glycerol, time point: terminal time point
[8] = growth medium: butyrate 5 mM, time point: constant time point
[9] = growth medium: butyrate 5 mM, time point: terminal time point
[10] = growth medium: cholesterol 0.05 mM, time point: constant time point
[11] = growth medium: cholesterol 0.05 mM, time point: terminal time point
[12] = growth medium: cholesterol 0.2 mM (cholesterol-high), time point: constant time point
[13] = growth medium: cholesterol 0.2 mM (cholesterol-high), time point: terminal time point
[14] = growth medium: hypoxic dormancy (butyrate + nitrate), then recovery, time point: constant time point
[15] = growth medium: hypoxic dormancy (butyrate + nitrate), then recovery, time point: terminal time point
[16] = growth medium: standard 7H9 OADC glycerol, time point: constant = terminal time point (4.2 d)
[17] = growth medium: valerate 0.1%, time point: constant time point
[18] = growth medium: valerate 0.1%, time point: terminal time point

Structure (SMILES): CC(C)/N=c1\cc2n(-c3ccc(Cl)cc3)c3ccccc3nc-2cc1Nc1ccc(Cl)cc1 [clofazimine] + CC(=O)NC[C@H]1CN(c2ccc(N3CCSCC3)c(F)c2)C(=O)O1 [sutezolid]
- AUC25 [1, 6]: 0.101
- AUC25 [1, 7]: 0.108
- AUC25 [1, 8]: 0.0828
- AUC25 [1, 9]: 0.0725
- AUC25 [1, 10]: 0.112
- AUC25 [1, 11]: 0.125
- AUC25 [1, 12]: 0.1
- AUC25 [1, 13]: 0.116
- AUC25 [1, 14]: 0.0485
- AUC25 [1, 15]: 0.0291
- AUC25 [1, 16]: 0.0934
- AUC25 [1, 17]: 0.118
- AUC25 [1, 18]: 0.0261
- log2 fractional inhibitory concentration [2, 6]: 0.684
- log2 fractional inhibitory concentration [2, 7]: -0.139
- log2 fractional inhibitory concentration [2, 8]: -1.05
- log2 fractional inhibitory concentration [2, 9]: -1.03
- log2 fractional inhibitory concentration [2, 10]: -0.848
- log2 fractional inhibitory concentration [2, 11]: -1.5
- log2 fractional inhibitory concentration [2, 12]: -0.164
- log2 fractional inhibitory concentration [2, 13]: -0.588
- log2 fractional inhibitory concentration [2, 14]: -0.185
- log2 fractional inhibitory concentration [2, 15]: 0.178
- log2 fractional inhibitory concentration [2, 16]: -0.402
- log2 fractional inhibitory concentration [2, 17]: 0.279
- log2 fractional inhibitory concentration [2, 18]: 0.564
- log2 fractional inhibitory concentration [3, 7]: -0.457
- log2 fractional inhibitory concentration [3, 9]: -1.04
- log2 fractional inhibitory concentration [3, 10]: -0.263
- log2 fractional inhibitory concentration [3, 11]: -0.782
- log2 fractional inhibitory concentration [3, 12]: -0.0175
- log2 fractional inhibitory concentration [3, 13]: -0.392
- log2 fractional inhibitory concentration [3, 14]: -0.341
- log2 fractional inhibitory concentration [3, 15]: -0.881
- log2 fractional inhibitory concentration [3, 16]: -0.528
- log2 fractional inhibitory concentration [3, 18]: -1.6
- Einf [4, 6]: 0.875
- Einf [4, 7]: 0.981
- Einf [4, 8]: 0.911
- Einf [4, 9]: 0.961
- Einf [4, 10]: 1
- Einf [4, 11]: 1
- Einf [4, 12]: 0.983
- Einf [4, 13]: 1
- Einf [4, 14]: 0.988
- Einf [4, 15]: 0.974
- Einf [4, 16]: 0.967
- Einf [4, 17]: 0.949
- Einf [4, 18]: 0.967
- GRinf [5, 6]: 0.0525
- GRinf [5, 7]: -0.188
- GRinf [5, 8]: 0.00728
- GRinf [5, 9]: -0.00637
- GRinf [5, 10]: -1
- GRinf [5, 11]: -0.651
- GRinf [5, 12]: -0.741
- GRinf [5, 13]: -0.833
- GRinf [5, 14]: 0.181
- GRinf [5, 15]: 0.351
- GRinf [5, 16]: -0.00824
- GRinf [5, 17]: -0.364
- GRinf [5, 18]: 0.184

Structure (SMILES): COc1c(N2C[C@@H]3CCCN[C@@H]3C2)c(F)cc2c(=O)c(C(=O)O)cn(C3CC3)c12 [moxifloxacin] + CC(=O)NC[C@H]1CN(c2ccc(N3CCSCC3)c(F)c2)C(=O)O1 [sutezolid]
- AUC25 [1, 6]: 0.153
- AUC25 [1, 7]: 0.126
- AUC25 [1, 8]: 0.0856
- AUC25 [1, 9]: 0.0636
- AUC25 [1, 10]: 0.0609
- AUC25 [1, 12]: 0.0941
- AUC25 [1, 13]: 0.12
- AUC25 [1, 14]: 0.0806
- AUC25 [1, 15]: 0.0478
- AUC25 [1, 16]: 0.0573
- AUC25 [1, 17]: 0.097
- AUC25 [1, 18]: 0.0564
- log2 fractional inhibitory concentration [2, 6]: -0.766
- log2 fractional inhibitory concentration [2, 7]: -0.628
- log2 fractional inhibitory concentration [2, 8]: 2.18
- log2 fractional inhibitory concentration [2, 9]: 1.99
- log2 fractional inhibitory concentration [2, 10]: 0.274
- log2 fractional inhibitory concentration [2, 12]: -0.358
- log2 fractional inhibitory concentration [2, 13]: -0.612
- log2 fractional inhibitory concentration [2, 14]: 0.0759
- log2 fractional inhibitory concentration [2, 15]: 0.726
- log2 fractional inhibitory concentration [2, 16]: -0.0683
- log2 fractional inhibitory concentration [2, 17]: 0.387
- log2 fractional inhibitory concentration [2, 18]: 0.257
- log2 fractional inhibitory concentration [3, 7]: 0.0336
- log2 fractional inhibitory concentration [3, 9]: 2.06
- log2 fractional inhibitory concentration [3, 12]: -0.0409
- log2 fractional inhibitory concentration [3, 13]: 0.362
- log2 fractional inhibitory concentration [3, 14]: -1.18
- log2 fractional inhibitory concentration [3, 15]: 0.502
- log2 fractional inhibitory concentration [3, 16]: -0.545
- log2 fractional inhibitory concentration [3, 18]: -0.156
- Einf [4, 6]: 0.884
- Einf [4, 7]: 0.994
- Einf [4, 8]: 0.921
- Einf [4, 9]: 0.96
- Einf [4, 10]: 0.744
- Einf [4, 12]: 1
- Einf [4, 13]: 1
- Einf [4, 14]: 0.95
- Einf [4, 15]: 0.902
- Einf [4, 16]: 0.969
- Einf [4, 17]: 0.857
- Einf [4, 18]: 0.963
- GRinf [5, 6]: -0.618
- GRinf [5, 7]: -0.27
- GRinf [5, 8]: 0.0433
- GRinf [5, 9]: 0.0229
- GRinf [5, 10]: -0.918
- GRinf [5, 12]: -0.886
- GRinf [5, 13]: -0.872
- GRinf [5, 14]: 0.218
- GRinf [5, 15]: 0.508
- GRinf [5, 16]: 0.0204
- GRinf [5, 17]: -0.0498
- GRinf [5, 18]: -0.0149

Structure (SMILES): NC(=O)c1cnccn1 [pyrazinamide] + CC(C)=CCC/C(C)=C/CNCCNC1C2CC3CC(C2)CC1C3 [SQ109]
- AUC25 [1, 8]: 0.0786
- AUC25 [1, 9]: 0.0634
- AUC25 [1, 10]: 0.116
- AUC25 [1, 12]: 0.0592
- AUC25 [1, 13]: 0.0665
- AUC25 [1, 16]: 0.032
- AUC25 [1, 17]: 0.0384
- AUC25 [1, 18]: 0.0424
- log2 fractional inhibitory concentration [2, 8]: 0.356
- log2 fractional inhibitory concentration [2, 9]: 0.129
- log2 fractional inhibitory concentration [2, 12]: 0.707
- log2 fractional inhibitory concentration [2, 13]: 0.668
- log2 fractional inhibitory concentration [2, 17]: -0.164
- log2 fractional inhibitory concentration [2, 18]: -0.462
- log2 fractional inhibitory concentration [3, 12]: -0.16
- log2 fractional inhibitory concentration [3, 13]: -0.347
- Einf [4, 8]: 0.915
- Einf [4, 9]: 0.946
- Einf [4, 10]: 0.894
- Einf [4, 12]: 0.977
- Einf [4, 13]: 0.997
- Einf [4, 16]: 0.84
- Einf [4, 17]: 0.933
- Einf [4, 18]: 0.944
- GRinf [5, 8]: -0.00249
- GRinf [5, 9]: 0.022
- GRinf [5, 10]: -0.787
- GRinf [5, 12]: -0.852
- GRinf [5, 13]: -0.789
- GRinf [5, 16]: 0.242
- GRinf [5, 17]: 0.0532
- GRinf [5, 18]: 0.0196
